Counter-ions that a name gives are not always drawn.
What was measured:
Type in all cases: cell-based, hamster
[1] = system: BHK cells expressing constitutively active CRaf (FLAG-C-Raf-DD-CAAX); experiment: Signaling in cells expressing constitutively active CRaf, Western blotting; conditions: 6 μg/mL, 48 h, serum starved BHK cells
Experimental: FIG. 6: Illustrates that fendiline HCl inhibition occurs at the level of Ras: Whole cell lysates from serum starved BHK cells expressing vector control, FLAG-C-Raf-DD-CAAX or Myc-B-Raf V600E treated with vehicle or fendiline HCl (6 μg/mL) for 48 h were analyzed by quantitative Western blotting. Representative Western blots of c-Raf, pMEK, pERK and Actin (loading control) are shown. Data is shown as mean±SEM from 3-4 independent experiments. Statistical significance was calculated using one way ANOVA and Student's T-test. (*=p<0.05), wherein experimentation was performed in accordance with principles described herein;
Preparation of whole-cell lysates: cells were lysed in Buffer B (50 mM Tris [pH 7.5], 75 mM NaCl, 25 mM NaF, 5 mM MgCl2, 5 mM EGTA, 1 mM dithiothreitol, 100 μM NaVO4, 1% Nonidet P-40 plus protease inhibitors). Cellular fractionation: cells were incubated in Buffer A (10 mm Tris-HCl, pH 7.5, 25 mm NaF, 5 mm MgCl2, 1 mm EGTA, 1 mm dithiothreitol, 100 μm NaVO4 plus protease inhibitors) for 30 minutes on ice and lysed by passing through a 27 G needle 30 times. The post nuclear supernatant was centrifuged at 100,000 g for 30 minutes and the membrane pellet was resuspended in Buffer A containing 1% Triton X-100.
Quantification of intensities was performed using FluorChemQ software.

[2] = system: Raf kinase activity in BHK cells stably expressing K-rasG12V; experiment: Raf kinase assay on membrane fractions of treated cells (coupled MEK/ERK assay); conditions: 6 μg/mL, 48 h; phosphorylation of recombinant ERK substrate
Experimental: FIG. 5: Illustrates that fendiline HCl inhibits Raf kinase activity and signaling downstream of oncogenic K-ras: BHK cells stably expressing K-rasG12V were treated with vehicle or fendiline HCl (6 μg/mL) for 48 h. (A) Raf kinase activity in membrane fractions prepared from the cells was measured in a coupled […] kinase assay. Data is shown as mean±SEM from 3 independent experiments. (B) ppMEK and ppERK in soluble protein fraction and pAkt levels in membrane protein fraction were measured by quantitative Western blotting. Actin and Akt were used as loading controls for soluble and membrane fractions, respectively. A representative blots are shown. Data is shown as mean±SEM from 3-4 independent experiments. Statistical significance was calculated using one way ANOVA and Student's T-test. (*=p<0.05), wherein experimentation was performed in accordance with principles described herein;
Membrane (P100) fractions were prepared from BHK or MDCK cells were dissolved in Buffer A containing 1% TritonX100. Solubilized P100 fractions were incubated with combinations of recombinant MEK and ERK in the presence of Mg^2+-ATP (40 mM and 0.5 mM, respectively) After 30 min at 30° C. with vigorous shaking, the pMEK and ppERK levels were determined by quantitative Western blotting.

[3] = target: T1, mGFP-tagged H-rasG12V in BHK cells (Homo sapiens, UniProt P01112, G12V); experiment: Immuno-electron microscopy and spatial analysis of plasma membrane sheets, H-rasG12V; conditions: 6 μg/mL, 48 h
T1 construct: BHK cells expressing GFP-tagged full length constitutively active Ras (G12V) proteins; expressed in transfected cells
Experimental: (§1) FIG. 4: Illustrates that fendiline HCl alters plasma membrane association and nanoclustering of K-ras: Plasma membrane sheets were generated from cells expressing GFP-K-rasG12V or GFP-H-rasG12V. Cells were treated with vehicle or fendiline HCl (6 μg/mL) for 48 h. Plasma membrane sheets were labeled with anti-GFP antibody conjugated to 4.5 nm gold. The plasma membrane sheets were imaged in an electron microscope and the spatial distribution of the gold labeling was analyzed using Ripley's K-function. Maximum L(r)-r values above the 99% confidence interval (C.I.) for complete spatial randomness (CSR) indicate clustering at that value of r. […] Significant differences from the control pattern for fendiline treated cells were assessed using bootstrap tests, wherein experimentation was performed in accordance with principles described herein;
(§2) Immuno-EM and spatial analysis were conducted exactly as described previously (Hancock, J. F., and Prior, I. A. (2005). Electron microscopic imaging of Ras signaling domains. Methods 37, 165-172; Prior, I. A., Muncke, C., Parton, R. G., and Hancock, J. F. (2003). Direct visualization of Ras proteins in spatially distinct cell surface microdomains. J Cell Biol 160, 165-170). […] Intact 1-μm^2 areas of the plasma membrane sheet were identified using ImageJ, and the x-y coordinates of the gold particles were determined. […]

[4] = target: T2, mGFP-tagged K-rasG12V in BHK cells (Homo sapiens, UniProt P01116, G12V); experiment: Immuno-electron microscopy and spatial analysis of plasma membrane sheets, K-rasG12V; conditions: 6 μg/mL, 48 h
T2 construct: BHK cells expressing GFP-tagged full length constitutively active Ras (G12V) proteins; expressed in transfected cells
Experimental: as §1, §2

CC(NCCC(c1ccccc1)c1ccccc1)c1ccccc1 (stereo not drawn) [fendiline HCl]
signaling downstream of constitutively active CRaf [1]: had no effect on signaling downstream of constitutively active CRaf
reduction of the amount of active Raf compared to vehicle-treated control [2]: approximately 60%
clustering of H-rasG12V on plasma membrane [3]: reduced clustering of both K- and H-rasG12V proteins
membrane association of H-rasG12V (EM gold labeling) [3]: slightly increases membrane association of H-rasG12V
clustering of K-rasG12V on plasma membrane [4]: reduced clustering of both K- and H-rasG12V proteins
plasma membrane associated K-rasG12V (EM gold labeling) [4]: reduces the plasma membrane associated K-rasG12V

— patent publication US9474730B2, “Methods and compositions for use with K-ras mediated disorders” (Board of Regents of the University of Texas System, priority 2012, dated 2016)
